Experimental data as given in patent publication US7019144B2, “1,2,4-Triazole derivative, method for preparing the same, and pharmaceutical composition containing the same” (CJ Corp., priority 2002, dated 2006).

How the values were obtained:
COX-1 = target: T1, COX-1 (Homo sapiens, UniProt P23219); experiment: Assay for the COX-1 inhibitory activity using U-937 (PGE2 inhibition); format: cell-based; details: for inhibition at 1 µM: 1 μM test compound, U-937 human lymphoma cells, PGE2 inhibition vs DMSO, read-out: Cyclooxygenase (COX) Inhibition (%) COX-1 (1 μM); for COX-1 inhibitory activity in comparison with the reference (Valdecoxib): 1 μM, U-937, comparison in words
T1 construct: host or cells: U-937 human lymphoma cells
Procedure: The collected cells were diluted with HBSS (×1, Hank's balanced salt solution) to a concentration of 1×10^6 cells/ml. 1 ml of the dilute cell solution was placed into each well of 12-well plates. 5 μl of 1 μM solution of a test compound in DMSO and 5 μl of DMSO as a control were added to the wells. The wells were incubated in CO2 incubator at 37° C. for 15 minutes. Separately, 10 mM stock solution of arachidonic acid in ethanol was diluted ten times in ethanol to prepare 1 mM solution of arachidonic acid. Arachidonic acid acts as a substrate. 10 μl of the 1 mM solution of arachidonic acid was added to each well and incubated at CO2 incubator at 37° C. for 30 minutes. The cell solution of each well was placed in a centrifuge test tube and centrifuged at 10,000 rpm at 4° C. for 5 minutes. The concentration of PGE2 in the collected cells and the supernatant was quantified by means of a monoclonal kit (Cayman Chemicals). The percentages of PGE2 inhibition in a group of the test compound-treated cells in relation to a group of the DMSO-treated cells were calculated. Based on the calculated values, the COX-1 inhibitory activities were evaluated.
(§1) The percentages of the COX inhibition were calculated according to the following equation: % Inhibition=(concentration of PGE2 in test compound-untreated sample−concentration of PGE2 in test compound-treated sample)/(concentration of PGE2 in test compound-untreated sample)×100

[1] = test system: carrageenan-induced paw edema; experiment: Carrageenan-induced paw edema test in rats; format: in vivo; details: for Inhibitory effect (% inhibition): oral administration, foot swelling 3 hours after carrageenan injection vs control; for COX inhibitory effect (paw edema % inhibition) in comparison with Celecoxib: oral, comparison in words
Procedure: 2. Carrageenan-induced Paw Edema Test in Rats
The day before the test date, rats were selected in each group so that the average body weight was as close as possible, and the rats were fasted by feed withdrawal prior to the test. At the test date, the rats were orally administered with the test compounds and a control material. After 1 hour, the volume (V0h) of a predetermined portion of the left hind foot of the rats was measured with a plethysmometer. 100 μl of 1% carrageenan solution was subcutaneously injected to the left hind foot of the rats using a syringe with 1 ml capacity. Three hours after the injection of the carrageenan, the volume (V3h) of the predetermined portion of the foot was again measured. The foot swelling variation […] in a group of test compound-treated rats was compared with that of a group of control material-treated rats. With the supposition of 0% inhibition by the control (control material-treated rats), the inhibition percentage of edema of each test compound was determined.

COX-2 = target: T2, COX-2 (Mus musculus, UniProt Q05769); experiment: Assay for the COX-2 inhibitory activity using RAW 264.7 cell line (PGE2, interferon γ/LPS induced); format: cell-based; details: for COX-2 inhibitory activity in comparison with the reference (Valdecoxib): 10 nM, RAW 264.7, comparison in words; for inhibition at 0.01 µM: RAW264.7, 10 nM test compound, RAW 264.7 cells, interferon γ + LPS, 18 hours, PGE2, read-out: Cyclooxygenase (COX) Inhibition (%) COX-2 (10 nM); for selectivity (COX-2 over COX-1): judged from Table 1, in words
T2 construct: host or cells: RAW 264.7 cells, aspirin-pretreated, then induced with interferon gamma and LPS
T2 sequence (Q05769 18-604): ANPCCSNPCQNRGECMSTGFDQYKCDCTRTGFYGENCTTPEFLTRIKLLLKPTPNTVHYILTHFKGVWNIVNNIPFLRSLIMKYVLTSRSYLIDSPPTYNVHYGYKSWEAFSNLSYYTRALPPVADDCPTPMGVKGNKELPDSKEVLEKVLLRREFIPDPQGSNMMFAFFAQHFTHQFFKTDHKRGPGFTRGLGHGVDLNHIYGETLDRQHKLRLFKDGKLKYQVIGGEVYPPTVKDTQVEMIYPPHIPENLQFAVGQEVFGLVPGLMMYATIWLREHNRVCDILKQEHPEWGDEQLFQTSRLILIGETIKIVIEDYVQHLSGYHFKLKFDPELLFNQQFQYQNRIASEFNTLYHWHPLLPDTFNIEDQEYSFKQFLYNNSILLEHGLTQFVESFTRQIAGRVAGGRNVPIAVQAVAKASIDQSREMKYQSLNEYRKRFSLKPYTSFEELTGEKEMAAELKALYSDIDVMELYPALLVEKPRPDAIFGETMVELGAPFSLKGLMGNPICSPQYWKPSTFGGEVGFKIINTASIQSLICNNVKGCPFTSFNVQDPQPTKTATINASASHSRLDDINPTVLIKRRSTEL
Procedure: Each well was treated with 250 μM of aspirin and incubated at 37° C. for 2 hours. […] Then, each well was treated with interferon γ (100 units/ml) and Iipopolysaccharide (LPS, 100 ng/ml) and incubated for 18 hours. The culture media were transferred to another test tubes. The concentration of PGE2 was quantified by means of the EIA kit (Cayman Chemicals).
as §1

T1 sequence (P23219 24-599): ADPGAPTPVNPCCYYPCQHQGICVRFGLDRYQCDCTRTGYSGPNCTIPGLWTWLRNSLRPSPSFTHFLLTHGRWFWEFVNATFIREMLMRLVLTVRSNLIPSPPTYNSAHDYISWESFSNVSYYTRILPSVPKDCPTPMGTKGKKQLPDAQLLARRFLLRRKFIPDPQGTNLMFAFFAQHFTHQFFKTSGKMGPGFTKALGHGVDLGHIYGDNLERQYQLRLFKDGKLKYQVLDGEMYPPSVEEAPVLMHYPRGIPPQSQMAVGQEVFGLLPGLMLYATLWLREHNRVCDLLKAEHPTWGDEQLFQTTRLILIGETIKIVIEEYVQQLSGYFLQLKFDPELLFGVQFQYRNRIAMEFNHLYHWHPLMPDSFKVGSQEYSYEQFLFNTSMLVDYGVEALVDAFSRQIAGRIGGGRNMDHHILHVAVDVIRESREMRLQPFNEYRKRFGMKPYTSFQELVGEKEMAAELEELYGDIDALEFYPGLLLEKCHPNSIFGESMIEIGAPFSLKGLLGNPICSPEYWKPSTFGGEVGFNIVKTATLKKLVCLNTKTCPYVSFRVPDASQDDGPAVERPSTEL

Compound | inhibition at 1 µM (COX-1) [%] | COX-1 inhibitory activity in comparison with the reference (Valdecoxib) (COX-1) | COX-2 inhibitory activity in comparison with the reference (Valdecoxib) (COX-2) | inhibition at 0.01 µM (COX-2) [%] | selectivity (COX-2 over COX-1) (COX-2) | Inhibitory effect (% inhibition) [1] [% inhibition] | COX inhibitory effect (paw edema % inhibition) in comparison with Celecoxib [1]
COc1ccc(/C=C/c2nc(C(F)(F)F)nn2-c2ccc(S(C)(=O)=O)cc2)cc1 [Example 34, 5-[2-(4-methoxyphenyl)vinyl]-1-(4-methanesulfonylphenyl)-3-trifluoromethyl-1H-[1,2,4]triazole] | 23.5 | – | – | 26.8 | – | 19.3 | –
CCOc1ccc(-c2nc(C(F)(F)F)nn2-c2ccc(S(C)(=O)=O)cc2)cc1 [Example 35, 5-(4-ethoxyphenyl)-1-(4-methanesulfonylphenyl)-3-trifluoromethyl-1H-[1,2,4]triazole] | 11.8 | the same as or lower | remarkably enhanced | 38.6 | excellent selectivities | 32.3 | remarkably improved
CS(=O)(=O)c1ccc(-n2nc(C(F)(F)F)nc2-c2ccc(Br)cc2)nc1 [Example 45, 2-[5-(4-bromophenyl)-3-trifluoromethyl-[1,2,4]triazol-1-yl]-5-methanesulfonyl pyridine] | 14.6 | the same as or lower | remarkably enhanced | 33.6 | excellent selectivities | 21.6 | –

Continued, in another order:

inhibition at 1 µM (COX-1) [%] | COX-1 inhibitory activity in comparison with the reference (Valdecoxib) (COX-1) | COX-2 inhibitory activity in comparison with the reference (Valdecoxib) (COX-2) | inhibition at 0.01 µM (COX-2) [%] | selectivity (COX-2 over COX-1) (COX-2) | Compound | Inhibitory effect (% inhibition) [1] [% inhibition] | COX inhibitory effect (paw edema % inhibition) in comparison with Celecoxib [1]
10.1 | the same as or lower | remarkably enhanced | 28.6 | excellent selectivities | COc1ccc(-c2nc(C(F)(F)F)nn2-c2ccc(S(C)(=O)=O)cc2)cc1 [Example 28, 1-(4-methanesulfonylphenyl)-5-(4-methoxyphenyl)-3-trifluoromethyl-1H-[1,2,4]triazole] | 23.3 | –
34.6 | – | – | 32.3 | – | COc1ccc(-c2nc(C(F)(F)F)nn2-c2ccc(S(N)(=O)=O)cc2)cc1 [Example 43, 4-[5-(4-methoxyphenyl)-3-trifluoromethyl-[1,2,4]triazol-1-yl]benzene suffonamide] | 39.1 | remarkably improved
23.1 | the same as or lower | remarkably enhanced | 29.9 | excellent selectivities | NS(=O)(=O)c1ccc(-n2nc(C(F)(F)F)nc2-c2ccc(Br)cc2)cc1 [Example 44, 4-[5-(4-bromophenyl)-3-trifluoromethyl-[1,2,4]triazol-1-yl]benzene sulfonamide] | 28.8 | remarkably improved
